According to the supplement of paper PMC10307832:

How the values were obtained:
Test in all cases: relative viability (nuclei count vs DMSO), 5 days (fraction); higher = more cells survive
[1] = compound: CN(c1ncccc1CNc1nc(Nc2ccc3c(c2)CC(=O)N3)ncc1C(F)(F)F)S(C)(=O)=O + COc1cc2c(Oc3ccc(NC(=O)C4(C(=O)Nc5ccc(F)cc5)CC4)cc3F)ccnc2cc1OCCCN1CCOCC1 [Foretinib] (partner 0.25 µM)
Outline: (§1)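 The day after seeding in 1536-well plates, lung cancer cell lines were treated by pin tool with a single drug, or with a fixed anchor-drug dose together with five library-drug doses (not always all listed) in √10 steps. After 5 days, a combined fix-and-stain solution (final 0.05% Triton X-100, 1% formaldehyde, 1 ug/ml Hoechst) was added. Nuclei counted on 4× images gave relative viability as treated counts over vehicle counts, reported as the median of duplicate plates.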

[2] = compound: CN(c1ncccc1CNc1nc(Nc2ccc3c(c2)CC(=O)N3)ncc1C(F)(F)F)S(C)(=O)=O + Cc1nc(NC(=O)N2CCC[C@H]2C(N)=O)sc1-c1ccnc(C(C)(C)C(F)(F)F)c1 [Alpelisib] (partner 2 µM)
Outline: as §1

[3] = compound: CN(c1ncccc1CNc1nc(Nc2ccc3c(c2)CC(=O)N3)ncc1C(F)(F)F)S(C)(=O)=O + Nc1nc2[nH]cc(CCc3ccc(C(=O)N[C@@H](CCC(=O)O)C(=O)O)cc3)c2c(=O)[nH]1 [Pemetrexed] (partner 0.2 µM)
Outline: as §1

[4] = compound: CN(c1ncccc1CNc1nc(Nc2ccc3c(c2)CC(=O)N3)ncc1C(F)(F)F)S(C)(=O)=O + O=C(c1cc(Cc2n[nH]c(=O)c3ccccc23)ccc1F)N1CCN(C(=O)C2CC2)CC1 [Olaparib] (partner 8 µM)
Outline: as §1

Row | Cell Line | relative viability ([1]; first compound 0.01 µM) | relative viability ([1]; first compound 0.03162 µM) | relative viability ([1]; first compound 0.1 µM) | relative viability ([1]; first compound 0.3162 µM) | relative viability ([1]; first compound 1 µM) | relative viability ([2]; first compound 0.01 µM) | relative viability ([2]; first compound 0.03162 µM) | relative viability ([2]; first compound 0.1 µM) | relative viability ([2]; first compound 0.3162 µM) | relative viability ([2]; first compound 1 µM) | relative viability ([3]; first compound 0.01 µM) | relative viability ([3]; first compound 0.03162 µM) | relative viability ([3]; first compound 0.1 µM) | relative viability ([3]; first compound 0.3162 µM) | relative viability ([3]; first compound 1 µM) | relative viability ([4]; first compound 0.01 µM) | relative viability ([4]; first compound 0.03162 µM) | relative viability ([4]; first compound 0.1 µM) | relative viability ([4]; first compound 0.3162 µM) | relative viability ([4]; first compound 1 µM)
1 | NCI-H2087 | 1.04 | 1.03 | 1.02 | 1.2 | 0.974 | 1.14 | 1.18 | 1.11 | 1.12 | 1.19 | 0.695 | 0.751 | 0.685 | 0.728 | 0.584 | 0.634 | 0.639 | 0.614 | 0.464 | 0.668
2 | NCI-H2228 | 1 | 0.995 | 0.749 | 0.927 | 0.811 | 0.634 | 0.766 | 0.857 | 0.633 | 0.701 | 0.368 | 0.343 | 0.366 | 0.313 | 0.355 | 0.619 | 1.01 | 0.665 | 0.766 | 0.539
3 | NCI-H727 | 0.836 | 0.873 | 0.932 | 1 | 0.891 | 0.638 | 0.606 | 0.565 | 0.448 | 0.444 |  |  |  |  |  | 0.776 | 0.707 | 0.77 | 0.635 | 0.715
4 | NCI-H650 | 1.02 | 0.953 | 0.935 | 0.796 | 0.853 | 1.01 | 1.23 | 0.945 | 0.832 | 0.725 | 0.884 | 0.935 | 0.826 | 1.04 | 0.621 | 0.372 | 0.376 | 0.389 | 0.367 | 0.358
5 | NCI-H520 | 0.851 | 0.744 | 0.723 | 0.839 | 0.722 | 0.985 | 0.894 | 0.829 | 0.96 | 1 | 0.609 | 0.924 | 0.632 | 0.768 | 0.705 | 0.325 | 0.318 | 0.35 | 0.394 | 0.423
6 | EBC-1 | 0.107 | 0.119 | 0.102 | 0.105 | 0.0994 | 0.869 | 0.885 | 0.877 | 0.948 | 0.654 |  |  |  |  |  | 0.71 | 0.649 | 0.706 | 0.634 | 0.58
7 | NCI-H661 | 1.01 | 1.04 | 0.989 | 0.993 | 0.92 | 0.817 | 0.695 | 0.546 | 0.85 | 0.5 | 0.869 | 0.941 | 0.885 | 0.832 | 0.833 | 0.727 | 0.85 | 0.74 | 0.771 | 0.7
8 | NCI-H1299 | 1.12 | 1.1 | 1.05 | 1.09 | 1.08 | 1.05 | 1.02 | 1.01 | 1.04 | 1.05 |  |  |  |  |  | 0.96 | 1.04 | 0.991 | 0.948 | 0.955
9 | LK-2 | 1.02 | 1.06 | 1.21 | 1.3 | 1.52 | 0.955 | 1.35 | 0.927 | 0.959 | 1.08 | 0.309 | 0.28 | 0.252 | 0.251 | 0.29 | 0.807 | 0.846 | 0.615 | 0.639 | 0.542
10 | NCI-H1993 | 0.692 | 0.994 | 0.744 | 0.75 | 0.767 | 0.739 | 0.632 | 0.612 | 0.663 | 0.674 | 0.584 | 0.593 | 0.538 | 0.641 | 0.572 | 1.13 | 0.977 | 1 | 1.1 | 0.92
11 | SW 900 | 0.796 | 0.964 | 0.872 | 0.894 | 0.566 |  |  |  |  |  | 0.49 | 0.459 | 0.477 | 0.484 | 0.51 | 0.867 | 1.09 | 1.01 | 0.722 | 0.718
12 | NCI-H1650 | 1.12 | 1.25 | 1.38 | 1.19 | 0.971 |  |  |  |  |  | 0.379 | 0.321 | 0.432 | 0.384 | 0.318 | 0.753 | 0.783 | 0.784 | 0.672 | 0.675
13 | NCI-H522 |  |  |  |  |  |  |  |  |  |  | 1.21 | 0.923 | 1.03 | 0.899 | 1.06 | 0.55 | 0.594 | 0.575 | 0.693 | 0.763
14 | IA-LM | 1.25 | 1.17 | 0.917 | 1.27 | 0.874 | 0.631 | 0.884 | 0.637 | 0.649 | 0.688 |  |  |  |  |  | 0.758 | 0.959 | 0.802 |  | 0.66
15 | NCI-H1563 | 0.996 | 0.907 | 1.04 | 0.899 | 0.863 | 0.867 | 1.03 | 0.897 | 0.917 | 0.933 | 0.815 | 0.772 | 0.84 | 0.772 | 0.773 |  |  |  |  | 
16 | HCC-44 |  |  |  |  |  | 0.872 | 0.792 | 0.789 | 0.824 | 0.778 | 0.668 | 0.622 | 0.639 | 0.65 | 0.611 | 0.959 | 0.978 | 0.917 | 0.875 | 0.904
17 | ABC-1 | 1.11 | 1.2 | 1.01 | 0.92 | 0.936 | 0.777 | 1.22 | 1.36 | 0.963 | 0.913 |  |  |  |  |  | 0.813 | 1.08 | 1.42 | 0.893 | 1.06
18 | NCI-H2342 | 1.15 | 0.976 | 0.927 | 0.953 | 0.999 |  |  |  |  |  | 0.775 | 0.885 | 0.801 | 0.789 | 0.757 | 0.494 | 0.503 | 0.471 | 0.352 | 0.398
19 | NCI-H1792 |  |  |  |  |  | 0.661 | 0.68 | 0.654 | 0.695 | 0.728 | 0.903 | 0.995 | 0.922 | 0.752 | 0.867 | 0.414 | 0.386 | 0.691 | 0.495 | 0.386
